Assay results from patent US11324717B2, “Microbial carotenoids affecting gut microbial composition” (Microbial Research Management Health NV, priority 2016, dated 2022).

Columns and labels:
[1] = system: Caco-2/THP1XB co-cultures; assay: Gut barrier function: TEER in Caco-2/THP1XB co-cultures (transwell); assay type: cell-based; details: 18 h after treatment of Caco-2/THP1XB co-cultures
Text: The effect on the host of the carotenoids from PD01 (derived from either vegetative cells or spores) on gut barrier function, was studied in Caco-2/THP1XB co-cultures, according to methods described in Possemiers et al. (2013, J Agric Food Chem 61). Endpoint of the measurement was a change from control in the transepithelial electrical resistance (TEER) in a transwell setup.

gut microbiota = assay: Gut microbiome composition (fecal DGGE cluster analysis) in rats on high-fat diet; assay type: in vivo, Sprague-Dawley rats; details: daily oral gavage in peanut oil for 8 weeks, carotenoids 10-50 pg/d, lutein 25 μg/d, vs HF controls
Text: To evaluate the effect of carotenoids from PD01 on gut microbiome composition in vivo, male Sprague-Dawley rats of 90 days of age were daily dosed for 8 weeks with carotenoids from PD01, either as carotenoid extract or as carotenoids contained in spores or vegetative cells. The experiment consisted of administration of a high-fat (HF) diet to the animals, which mimics a standardized western diet and is associated with the development of metabolic syndrome within 8 weeks of administration. In addition to a HF control group, separate groups of animals received the HF diet in combination with one of the carotenoid formulations from PD01. To do this, the carotenoid formulations were suspended in peanut oil and given by oral gavage to the rats in addition to the HF diet. The corresponding daily dose of carotenoids was in the range of […]. A control group receiving a standard low-fat (LF) diet was included to allow assessment of the specific effect of the HF diet on the gut microbiome composition. Additionally, one extra HF group was included, receiving the plant-derived carotenoid lutein, in the same amount as the bacterial carotenoids (i.e. 25 μg/d). This allows comparison of the effect of bacterial vs. plant-derived carotenoids on the gut microbiome composition. To monitor the effects of the different formulations on the gut microbiota, DGGE profiles were prepared. […]

Row | Structure (SMILES) | transepithelial electrical resistance (TEER), change from control [1] | gut microbiome composition (DGGE cluster analysis of fecal samples) (gut microbiota)
1 | Cc1c(C)c2c(c(C)c1O)CC[C@@](C)(CCC[C@H](C)CCC[C@H](C)CCCC(C)C)O2 [α-tocopherol] | did not induce protection | 
2 | CC1=C[C@H](O)CC(C)(C)[C@H]1/C=C/C(C)=C/C=C/C(C)=C/C=C/C=C(C)/C=C/C=C(C)/C=C/C1=C(C)C[C@@H](O)CC1(C)C [lutein] |  | clustered together with those of the HF controls
